Laboratory results: patent publication US20260078120A1, “SUBSTITUTED PYRIDOPYRIMIDINONES” (MIRATI THERAPEUTICS, INC., priority 2022, published 2026)
Where two headings read alike, the source gives them in different places.

Key:
[1] = tested on: T47D (PI3Kα H1047R mutant) cells; assay: CellTiter-Glo 2.0 luminescent cell viability assay, 72 hours, T47D cells; format: cell-based; settings: T47D (PI3Kα H1047R mutant) cells, CellTiter-Glo, approximately 72 hours, read-out: T47D (H1047R mutant) Viability IC50
Outline: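 Viability was measured by CellTiter-Glo 2.0 luminescence after approximately 72 h of compound exposure at 37° C. Plating was 1000 cells per well the day before dosing, with ten 1:4 dilutions from a 10 µM top concentration. Values as percent of vehicle were fitted by variable-slope log(inhibitor) regression to give IC50.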

[2] = tested on: SKBR3 (PI3Kα wild type) cells; assay: CellTiter-Glo 2.0 luminescent cell viability assay, 72 hours, SKBR3 cells; format: cell-based; settings: Homo sapiens, SK-BR-3, 72 h, SKBR3 (PI3Kα wild type) cells, CellTiter-Glo, approximately 72 hours; read-out: SKBR3 (WT) Viability IC50
Outline: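 Viability measured via CTG luminescence following roughly 72 hours of compound exposure at 37° C. Dosing used a 10 um starting concentration diluted 1:4 over 10 points; percent-of-vehicle data fitted with a variable-slope four-parameter model for IC50.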

SMILES | IC50 ([1]; Homo sapiens, T47D, 72 h) [µM] | IC50 [2] [µM] | IC50 [1] [µM]
Cc1cc(C(C)Nc2ccccc2C(=O)O)c2nc(C3=CCNCC3)cc(=O)n2c1 (stereo not shown) [Example 11-378, 2-((1-(7-methyl-4-oxo-2-(1,2,3,6-tetrahydropyridin-4-yl)-4H-pyrido[1,2-a]pyrimidin-9-yl)ethyl)amino)benzoic acid] | > 10 | > 10 | 
Cc1cc([C@@H](C)Nc2ccccc2C(=O)O)c2nc(N3CCC4(CCCO4)CC3)c(C)c(=O)n2c1 [Example 11-63, (R)-2-((1-(3,7-dimethyl-4-oxo-2-(1-oxa-8-azaspiro[4.5]decan-8-yl)-4H-pyrido[1,2-a]pyrimidin-9-yl)ethyl)amino)benzoic acid] | 0.136 | > 10 | 
Cc1cc([C@@H](C)Nc2ccccc2C(=O)O)c2nc(N3CCn4c(nnc4C(F)(F)F)C3)c(C#N)c(=O)n2c1 [Example 11-216, (R)-2-((1-(3-cyano-7-methyl-4-oxo-2-(3-(trifluoromethyl)-5,6-dihydro-[1,2,4]triazolo[4,3-a]pyrazin-7(8H)-yl)-4H-pyrido[1,2-a]pyrimidin-9-yl)ethyl)amino)benzoic acid] | > 10 | > 10 | 
Cc1cc([C@@H](C)Nc2ccccc2C(=O)O)c2nc(N3C[C@@H]4C[C@H]3CN4c3ccc(C#N)cc3)c(C)c(=O)n2c1 [Example 11-177, 2-(((R)-1-(2-((1S,4S)-5-(4-cyanophenyl)-2,5-diazabicyclo[2.2.1]heptan-2-yl)-3,7-dimethyl-4-oxo-4H-pyrido[1,2-a]pyrimidin-9-yl)ethyl)amino)benzoic acid] | 1.57 | > 10 | 
Cc1cc([C@@H](C)OC(=O)c2nc(Cl)ccc2N)c2nc(N3CCCCC3)c(C#N)c(=O)n2c1 [Example 11-330, (R)-1-(3-cyano-7-methyl-4-oxo-2-(piperidin-1-yl)-4H-pyrido[1,2-a]pyrimidin-9-yl)ethyl 3-amino-6-chloropicolinate] | > 10 | > 10 | 
Cc1cc([C@@H](C)Nc2ccccc2C(=O)O)c2nc(NC[C@H]3CCOC3)c(C)c(=O)n2c1 [Example 11-196, 2-(((R)-1-(3,7-dimethyl-4-oxo-2-((((R)-tetrahydrofuran-3-yl)methyl)amino)-4H-pyrido[1,2-a]pyrimidin-9-yl)ethyl)amino)benzoic acid] | 0.646 | > 10 | 
Cc1cc(C(C)Nc2ccccc2C(=O)O)c2nc(N3Cc4cccc(C#N)c4C3)cc(=O)n2c1 (stereo not shown) [Example 11-338, 2-((1-(2-(4-cyanoisoindolin-2-yl)-7-methyl-4-oxo-4H-pyrido[1,2-a]pyrimidin-9-yl)ethyl)amino)benzoic acid] | 2.42 | > 10 | 
CC(=O)N1CCN(c2cc(=O)n3cc(C)cc(C(C)Nc4ccccc4C(=O)O)c3n2)CC1 (stereo not shown) [Example 11-337, 2-((1-(2-(4-acetylpiperazin-1-yl)-7-methyl-4-oxo-4H-pyrido[1,2-a]pyrimidin-9-yl)ethyl)amino)benzoic acid] | > 10 | > 10 | 
Cc1cc([C@@H](C)Nc2ccccc2C(=O)O)c2nc(N3CCC4(CCC(=O)N4)C3)c(C#N)c(=O)n2c1 (stereo partly drawn) [Example 11-289, 2-(((1R)-1-(3-cyano-7-methyl-4-oxo-2-(2-oxo-1,7-diazaspiro[4.4]nonan-7-yl)-4H-pyrido[1,2-a]pyrimidin-9-yl)ethyl)amino)benzoic acid] | 1.87 | > 10 | 
Cc1cc(C(C)Nc2ccccc2C(=O)O)c2nc(N3CCC3)cc(=O)n2c1 (stereo not shown) [Example 11-407, 2-((1-(2-(azetidin-1-yl)-7-methyl-4-oxo-4H-pyrido[1,2-a]pyrimidin-9-yl)ethyl)amino)benzoic acid] | > 10 | > 10 | 
Cc1cc([C@@H](C)Nc2ccccc2C(=O)O)c2nc(NCC(C)C(F)(F)F)c(C#N)c(=O)n2c1 (stereo partly drawn) [Example 11-49, 2-(((1R)-1-(3-cyano-7-methyl-4-oxo-2-((3,3,3-trifluoro-2-methylpropyl)amino)-4H-pyrido[1,2-a]pyrimidin-9-yl)ethyl)amino)benzoic acid] | 0.204 | > 10 | 
Cc1cc([C@@H](C)Nc2ccccc2C(=O)O)c2nc(N3C4CC3CN(c3ccc(C#N)cc3)C4)c(C#N)c(=O)n2c1 [Example 11-179, 2-(((1R)-1-(3-cyano-2-(3-(4-cyanophenyl)-3,6-diazabicyclo[3.1.1]heptan-6-yl)-7-methyl-4-oxo-4H-pyrido[1,2-a]pyrimidin-9-yl)ethyl)amino)benzoic acid] | 1.53 | > 10 | 
Cc1cc([C@@H](C)Nc2ccccc2C(=O)O)c2nc(N3CCC4(CCC(O)C4)CC3)c(C)c(=O)n2c1 (stereo partly drawn) [Example 10-143, 2-(((1R)-1-(2-(2-hydroxy-8-azaspiro[4.5]decan-8-yl)-3,7-dimethyl-4-oxo-4H-pyrido[1,2-a]pyrimidin-9-yl)ethyl)amino)benzoic acid] | 0.0831 | > 10 | 
Cc1cc([C@@H](C)Nc2ccccc2C(=O)O)c2nc(NC34CC(CO)(C3)C4)c(C#N)c(=O)n2c1 [Example 11-282, (R)-2-((1-(3-cyano-2-((3-(hydroxymethyl)bicyclo[1.1.1]pentan-1-yl)amino)-7-methyl-4-oxo-4H-pyrido[1,2-a]pyrimidin-9-yl)ethyl)amino)benzoic acid] | 1.65 | > 10 | 
Cc1cc([C@@H](C)Nc2ccccc2C(=O)O)c2nc(N3CCN(S(C)(=O)=O)CC3)c(C#N)c(=O)n2c1 [Example 11-283, (R)-2-((1-(3-cyano-7-methyl-2-(4-(methylsulfonyl)piperazin-1-yl)-4-oxo-4H-pyrido[1,2-a]pyrimidin-9-yl)ethyl)amino)benzoic acid] | 7.17 | > 10 | 

Second part, the molecule after the results:

IC50 ([1]; Homo sapiens, T47D, 72 h) [µM] | IC50 [2] [µM] | IC50 [1] [µM] | SMILES
0.146 | > 10 |  | Cc1cc([C@@H](C)Nc2ccccc2C(=O)O)c2nc(N3CCN(c4cccc(C#N)c4)C[C@@H]3C)c(C)c(=O)n2c1 [Example 11-86, 2-(((R)-1-(2-((S)-4-(3-cyanophenyl)-2-methylpiperazin-1-yl)-3,7-dimethyl-4-oxo-4H-pyrido[1,2-a]pyrimidin-9-yl)ethyl)amino)benzoic acid]
0.194 | > 10 |  | Cc1cc([C@@H](C)Nc2ccccc2C(=O)O)c2nc(N3Cc4cccc(F)c4C3)c(C)c(=O)n2c1 [Example 11-38, (R)-2-((1-(2-(4-fluoroisoindolin-2-yl)-3,7-dimethyl-4-oxo-4H-pyrido[1,2-a]pyrimidin-9-yl)ethyl)amino)benzoic acid]
0.213 | > 10 |  | Cc1cc([C@@H](C)Nc2ccccc2C(=O)O)c2nc(N3CCC(F)(F)C[C@@H]3C)c(C)c(=O)n2c1 [Example 11-92, 2-(((R)-1-(2-((S)-4,4-difluoro-2-methylpiperidin-1-yl)-3,7-dimethyl-4-oxo-4H-pyrido[1,2-a]pyrimidin-9-yl)ethyl)amino)benzoic acid]
0.137 | > 10 |  | Cc1cc([C@@H](C)Nc2ccccc2C(=O)O)c2nc(N3CC(C(F)(F)F)C3)c(C)c(=O)n2c1 [Example 11-107, (R)-2-((1-(3,7-dimethyl-4-oxo-2-(3-(trifluoromethyl)azetidin-1-yl)-4H-pyrido[1,2-a]pyrimidin-9-yl)ethyl)amino)benzoic acid]
4.19 | > 10 |  | Cc1cc([C@@H](C)Nc2ccnnc2C(=O)O)c2nc(N3Cc4ccccc4C3)c(C)c(=O)n2c1 [Example 11-277, (R)-4-((1-(2-(isoindolin-2-yl)-3,7-dimethyl-4-oxo-4H-pyrido[1,2-a]pyrimidin-9-yl)ethyl)amino)pyridazine-3-carboxylic acid]
0.18 | > 10 |  | Cc1cc([C@@H](C)Nc2ccccc2C(=O)O)c2nc(N3CC[C@@H]3C)c(C)c(=O)n2c1 [Example 11-101, 2-(((R)-1-(3,7-dimethyl-2-((S)-2-methylazetidin-1-yl)-4-oxo-4H-pyrido[1,2-a]pyrimidin-9-yl)ethyl)amino)benzoic acid]
0.192 | > 10 |  | Cc1cc([C@@H](C)Nc2ccc(Cl)nc2C(=O)O)c2nc(N3CCC(C)(C)CC3)c(C)c(=O)n2c1 [Example 11-279, (R)-6-chloro-3-((1-(2-(4,4-dimethylpiperidin-1-yl)-3,7-dimethyl-4-oxo-4H-pyrido[1,2-a]pyrimidin-9-yl)ethyl)amino)picolinic acid]
0.864 | > 10 |  | Cc1cc([C@H](C)Nc2ccccc2C(=O)O)c2nc(N3Cc4ccccc4C3)cc(=O)n2c1 [Example 11-406, (S)-2-((1-(2-(isoindolin-2-yl)-7-methyl-4-oxo-4H-pyrido[1,2-a]pyrimidin-9-yl)ethyl)amino)benzoic acid]
0.06 | 5.22 |  | Cc1cc([C@@H](C)Nc2ccccc2C(=O)O)c2nc(N3CC(C)C(F)(F)C3)c(C)c(=O)n2c1 (stereo partly drawn) [Example 11-121, 2-(((1R)-1-(2-(3,3-difluoro-4-methylpyrrolidin-1-yl)-3,7-dimethyl-4-oxo-4H-pyrido[1,2-a]pyrimidin-9-yl)ethyl)amino)benzoic acid]
 | > 10 | 0.11 | Cc1cc([C@@H](C)Nc2ccccc2C(=O)O)c2nc(N3CCN(c4ccc(C#N)cc4)CC3C)c(C)c(=O)n2c1 (stereo partly drawn) [Example 11-269, 2-(((1R)-1-(2-(4-(4-cyanophenyl)-2-methylpiperazin-1-yl)-3,7-dimethyl-4-oxo-4H-pyrido[1,2-a]pyrimidin-9-yl)ethyl)amino)benzoic acid]
0.387 | > 10 |  | Cc1cc([C@@H](C)Nc2ccccc2C(=O)O)c2nc(N3CCC(C(F)(F)F)CC3)c(C)c(=O)n2c1 [Example 11-71, (R)-2-((1-(3,7-dimethyl-4-oxo-2-(4-(trifluoromethyl)piperidin-1-yl)-4H-pyrido[1,2-a]pyrimidin-9-yl)ethyl)amino)benzoic acid]
